Paper PMC11822212, “High-throughput screening identifies Aurora kinase B as a critical therapeutic target for Merkel cell carcinoma” (Nature Communications, 2025)
Where “and” joins values, the source holds several entries; their conditions need not be identical. Equal entries are not always repeated. Structures can show the parent of a compound that is named as a salt. Where two headings read alike, the source gives them in different places.

How the values were obtained:
[1] = system: VP-MCC cell lines (WAGA, MKL-1, MKL-2); assay: qHTS cell viability, VP-MCC cell lines as a group (mean AUC, VP.MCC.avg); format: cell-based, human
MKL-2 cells (VP-MCC) = assay: qHTS cell viability (CellTiter-Glo, 72 h; primary and follow-up small molecule screen); format: cell-based, human
[2] = system: VN-MCC cell lines (MCC13, MCC26, UISO); assay: qHTS cell viability, VN-MCC cell lines as a group (mean AUC, VN.MCC.avg); format: cell-based, human
CRL-7250 cells = assay: qHTS cell viability (CellTiter-Glo, 72 h; primary screen), control cell line; format: cell-based
WAGA cells (VP-MCC) = assay: qHTS cell viability (CellTiter-Glo, 72 h; primary and follow-up small molecule screen); format: cell-based, human
MCC13 cells (VN-MCC) = assay: as above; format: cell-based, human
HACAT cells = assay: qHTS cell viability (CellTiter-Glo, 72 h; primary screen), control cell line; format: cell-based, human
UISO cells (VN-MCC) = assay: qHTS cell viability (CellTiter-Glo, 72 h; primary and follow-up small molecule screen); format: cell-based, human
MCC26 cells (VN-MCC) = assay: as above; format: cell-based, human
[3] = system: control cell lines (HACAT, HEK293T, CRL-7250, NIH-3T3); assay: qHTS cell viability, control cell lines as a group (mean AUC, Control.avg); format: cell-based
[4] = system: MCC cell lines (WAGA, MKL-1, MKL-2, MCC13, MCC26, UISO); assay: qHTS cell viability, all six MCC cell lines as a group (mean AUC, MCC.avg); format: cell-based, human
HEK293T cells = assay: qHTS cell viability (CellTiter-Glo, 72 h; primary screen), control cell line; format: cell-based, human
MKL-1 cells (VP-MCC) = assay: qHTS cell viability (CellTiter-Glo, 72 h; primary and follow-up small molecule screen); format: cell-based, human
[5] = system: six MCC cell lines and four control cell lines; assay: qHTS cell viability, all 10 cell lines screened; format: cell-based
NIH-3T3 cells = assay: qHTS cell viability (CellTiter-Glo, 72 h; primary screen), control cell line; format: cell-based, mouse
[6] = NPC library, mean AUC of VP-MCC cell lines
[7] = NPC library, therapeutic window: Control avg AUC minus VP-MCC avg AUC
[8] = NPC library, qHTS dose-response AUC, MKL2
[9] = NPC library, mean AUC of VN-MCC cell lines
[10] = NPC library, therapeutic window: Control avg AUC minus VN-MCC avg AUC
[11] = NPC library, qHTS dose-response AUC, CRL7250 control
[12] = NPC library, qHTS dose-response AUC, WAGA
[13] = NPC library, qHTS dose-response AUC, MCC13
[14] = NPC library, qHTS dose-response AUC, HACAT control
[15] = NPC library, qHTS dose-response AUC, UISO
[16] = NPC library, mean AUC of control cell lines
[17] = NPC library, mean AUC of six MCC cell lines
[18] = NPC library, qHTS dose-response AUC, MKL1
[19] = NPC library, therapeutic window: Control avg AUC minus MCC avg AUC
[20] = NPC library, qHTS dose-response AUC, NIH3T3 control
[21] = MIPE library, 11-point DRC, sheet S2E
[22] = MIPE library, 11-point DRC, control cell line, sheet S2E

CNS(=O)(=O)CCc1ccc2[nH]cc(C3CCN(C)CC3)c2c1 [Naratriptan hydrochloride]
VP-MCC_Avg_AUC [1, 6]: 408.679
Control-VP-MCC [1, 7]: 53.9902
MKL2_AUC (MKL-2 cells (VP-MCC); [8]): 428.785
VN-MCC_Avg_AUC [2, 9]: 429.254
Control-VN-MCC [2, 10]: 33.4153
CRL7250_AUC (CRL-7250 cells; [11]): 454.782
WAGA_AUC (WAGA cells (VP-MCC); [12]): 412.133
MCC13_AUC (MCC13 cells (VN-MCC); [13]): 448.681
HACAT_AUC (HACAT cells; [14]): 491.601
UISO_AUC (UISO cells (VN-MCC); [15]): 436.144
MCC26_AUC (MCC26 cells (VN-MCC); NPC library; qHTS dose-response AUC, MCC26): 402.936
Control_Avg_AUC [3, 16]: 462.669
MCC_Avg_AUC [4, 17]: 418.966
HEK293T_AUC (HEK293T cells; NPC library; qHTS dose-response AUC, HEK293T control): 455.258
MKL1_AUC (MKL-1 cells (VP-MCC); [18]): 385.118
Control-MCC [5, 19]: 43.7027
NIH3T3_AUC (NIH-3T3 cells; [20]): 449.036

CC(Cc1ccccc1)NCCn1cnc2c1c(=O)n(C)c(=O)n2C (centres unmarked) [Fenethylline hydrochloride]
Control-VP-MCC [1]: 60.9825
VP-MCC_Avg_AUC [1]: 425.75
MKL2_AUC (MKL-2 cells (VP-MCC)): 435.518
Control-VN-MCC [2]: 53.8023
VN-MCC_Avg_AUC [2]: 432.93 and 432.931
CRL7250_AUC (CRL-7250 cells): 496.56
WAGA_AUC (WAGA cells (VP-MCC)): 435.275
MCC13_AUC (MCC13 cells (VN-MCC)): 447.432
HACAT_AUC (HACAT cells): 497.83
UISO_AUC (UISO cells (VN-MCC)): 437.462
MCC26_AUC (MCC26 cells (VN-MCC)): 413.898
Control_Avg_AUC [3]: 486.733
MCC_Avg_AUC [4]: 429.34
HEK293T_AUC (HEK293T cells): 471.885
MKL1_AUC (MKL-1 cells (VP-MCC)): 406.458
Control-MCC [5]: 57.3924
NIH3T3_AUC (NIH-3T3 cells): 480.657

[H]/N=C(\N/C(=N/[H])NCCCCCCNC(=N)NC(=N)Nc1ccc(Cl)cc1)Nc1ccc(Cl)cc1 [Chlorhexidine]
Control-VP-MCC ([1]; Control AUC minus VP-MCC AUC): 68.1526
VP-MCC_Avg_AUC [1, 6]: 374.608
Control-VP-MCC [1, 7]: 68.1526
MKL2_AUC (MKL-2 cells (VP-MCC); [8]): 345.753
Control-VN-MCC ([2]; Control AUC minus VN-MCC AUC): 36.8736
VN-MCC_Avg_AUC [2, 9]: 405.887
Control-VN-MCC [2, 10]: 36.8736
CRL7250_AUC (CRL-7250 cells; [11]): 454.576
WAGA_AUC (WAGA cells (VP-MCC); [12]): 400.622
MCC13_AUC (MCC13 cells (VN-MCC); [13]): 433.192
HACAT_AUC (HACAT cells; [14]): 458.563
UISO_AUC (UISO cells (VN-MCC); [15]): 378.135
MCC26_AUC (MCC26 cells (VN-MCC); NPC library, qHTS dose-response AUC, MCC26): 406.333
Control_Avg_AUC [3, 16]: 442.76
MCC_Avg_AUC ([4]; NPC library, mean AUC of all 6 MCC cell lines): 390.247
MCC_Avg_AUC [4, 17]: 390.247
HEK293T_AUC (HEK293T cells; NPC library, qHTS dose-response AUC, HEK293T control): 398.25
MKL1_AUC (MKL-1 cells (VP-MCC); [18]): 377.448
Control-MCC [5, 19]: 52.5131
NIH3T3_AUC (NIH-3T3 cells; [20]): 459.651

COc1cc(/C=C/C(=O)CC(=O)/C=C/c2ccc(O)c(OC)c2)ccc1O [Curcumin]
Control-VP-MCC ([1]; MIPE library, Control AUC minus VP-MCC AUC (therapeutic window), sheet S2E): 62.3178
VP-MCC_Avg_AUC ([1]; MIPE library, mean AUC of VP-MCC cell lines, sheet S2E): 372.565
MKL2_AUC (MKL-2 cells (VP-MCC); [21]): 342.595
Control-VN-MCC ([2]; MIPE library, Control AUC minus VN-MCC AUC (therapeutic window), sheet S2E): -6.83
VN-MCC_Avg_AUC ([2]; MIPE library, mean AUC of VN-MCC cell lines, sheet S2E): 441.713
CRL7250_AUC (CRL-7250 cells; [22]): 433.368
WAGA_AUC (WAGA cells (VP-MCC); [21]): 392.592
MCC13_AUC (MCC13 cells (VN-MCC); [21]): 449.9
HACAT_AUC (HACAT cells; [22]): 459.473
UISO_AUC (UISO cells (VN-MCC); [21]): 416.827
MCC26_AUC (MCC26 cells (VN-MCC); [21]): 458.412
Control_Avg_AUC ([3]; MIPE library, mean AUC of control cell lines, sheet S2E): 434.883
MCC_Avg_AUC ([4]; MIPE library, mean AUC of six MCC cell lines, sheet S2E): 407.139
HEK293T_AUC (HEK293T cells; [22]): 422.758
MKL1_AUC (MKL-1 cells (VP-MCC); [21]): 382.508
Control-MCC ([5]; MIPE library, Control AUC minus MCC AUC (therapeutic window), sheet S2E): 27.7437
NIH3T3_AUC (NIH-3T3 cells; [22]): 423.932
